Experimental data taken from PubChem BioAssay (NCI).
≈ marks a conversion by molar mass, not a printed value.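 1) Cells in 96-well plates. 2) Compound, 48 h, 5 concentrations. 3) Linear interpolation between surrounding doses. 4) Unreached endpoint = highest concentration. Here, GI50 denotes the concentration required for 50% inhibition of growth. TGI denotes the concentration required for complete inhibition of growth.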

What was measured:
Test in all cases: NCI tumour cell line growth inhibition, 48 h
[1] = tested on: OVCAR-8 ovarian
[2] = tested on: UO-31 renal
[3] = tested on: HS 578T breast
[4] = tested on: A549 NSCLC
[5] = tested on: SF-268 CNS
[6] = tested on: UACC-257 melanoma
[7] = tested on: OVCAR-3 ovarian
[8] = tested on: OVCAR-4 ovarian
[9] = tested on: NCI-H23 lung
[10] = tested on: TK-10 renal
[11] = tested on: PC-3 prostate
[12] = tested on: RPMI-8226 leukemia
[13] = tested on: HT29 colon
[14] = tested on: SK-OV-3 ovarian
[15] = tested on: A498 renal
[16] = tested on: SN12C renal
[17] = tested on: NCI-H522 lung
[18] = tested on: MCF7 breast
[19] = tested on: NCI/ADR-RES ovarian
[20] = tested on: MOLT-4 leukemia
[21] = tested on: NCI-H460 lung
[22] = tested on: EKVX NSCLC
[23] = tested on: SK-MEL-5 melanoma
[24] = tested on: MDA-MB-231 breast
[25] = tested on: 786-0 renal
[26] = tested on: SNB-19 CNS
[27] = tested on: IGROV1 ovarian
[28] = tested on: SW-620 colon
[29] = tested on: BT-549 breast
[30] = tested on: UACC-62 melanoma
[31] = tested on: SR leukemia
[32] = tested on: NCI-H226 lung
[33] = tested on: T-47D breast
[34] = tested on: ACHN renal
[35] = tested on: HOP-92 NSCLC
[36] = tested on: M14 melanoma

Question: Which results are given for `OCCN1CN(CCO)CN(c2nc(N3CN(CCO)CN(CCO)C3)nc(N3CN(CCO)CN(CCO)C3)n2)C1`?
Answer: TGI [1]: 13.3 ng/mL (≈ 22.2 nM); GI50 [2]: 1.5 ng/mL (≈ 2.5 nM); TGI [2]: 4.4 ng/mL (≈ 7.33 nM); GI50 [3]: 3.08 ng/mL (≈ 5.13 nM); TGI [3]: 9.43 ng/mL (≈ 15.7 nM); TGI [4]: 69.5 ng/mL (≈ 116 nM); TGI [5]: 2.04 ng/mL (≈ 3.39 nM); GI50 [6]: 1.42 ng/mL (≈ 2.36 nM); TGI [6]: 3.14 ng/mL (≈ 5.23 nM); GI50 [7]: 2.2 ng/mL (≈ 3.66 nM); TGI [7]: 6300 ng/mL (≈ 10500 nM); GI50 [8]: 1.69 ng/mL (≈ 2.81 nM); TGI [8]: 4.06 ng/mL (≈ 6.76 nM); GI50 [9]: 1.42 ng/mL (≈ 2.36 nM); TGI [9]: 4.39 ng/mL (≈ 7.31 nM); GI50 [10]: 2.05 ng/mL (≈ 3.41 nM); TGI [10]: 18.3 ng/mL (≈ 30.5 nM); TGI [11]: 3.51 ng/mL (≈ 5.85 nM); TGI [12]: 0.63 ng/mL (≈ 1.05 nM); TGI [13]: 0.63 ng/mL (≈ 1.05 nM); GI50 [14]: 1.39 ng/mL (≈ 2.32 nM); TGI [14]: 4.64 ng/mL (≈ 7.72 nM); GI50 [15]: 1.61 ng/mL (≈ 2.69 nM); TGI [15]: 4.96 ng/mL (≈ 8.26 nM); GI50 [16]: 6.3 ng/mL (≈ 10.5 nM); TGI [16]: 7.22 ng/mL (≈ 12 nM); GI50 [17]: 1.04 ng/mL (≈ 1.73 nM); TGI [17]: 2.91 ng/mL (≈ 4.84 nM); TGI [18]: 0.69 ng/mL (≈ 1.15 nM); GI50 [19]: 0.867 ng/mL (≈ 1.44 nM); TGI [19]: 3.98 ng/mL (≈ 6.63 nM); GI50 [20]: 1.23 ng/mL (≈ 2.05 nM); TGI [20]: 4.78 ng/mL (≈ 7.95 nM); GI50 [21]: 0.92 ng/mL (≈ 1.53 nM); TGI [21]: 3.85 ng/mL (≈ 6.42 nM); GI50 [22]: 1.16 ng/mL (≈ 1.93 nM); TGI [22]: 2.87 ng/mL (≈ 4.79 nM); GI50 [23]: 0.891 ng/mL (≈ 1.48 nM); TGI [23]: 1.74 ng/mL (≈ 2.9 nM); GI50 [24]: 0.776 ng/mL (≈ 1.29 nM); TGI [24]: 1.83 ng/mL (≈ 3.04 nM); GI50 [25]: 0.631 ng/mL (≈ 1.05 nM); TGI [25]: 0.968 ng/mL (≈ 1.61 nM); GI50 [26]: 1.08 ng/mL (≈ 1.8 nM); TGI [26]: 63 ng/mL (≈ 105 nM); GI50 [27]: 1.55 ng/mL (≈ 2.57 nM); TGI [27]: 4.61 ng/mL (≈ 7.68 nM); TGI [28]: 1.04 ng/mL (≈ 1.73 nM); TGI [29]: 1.55 ng/mL (≈ 2.59 nM); GI50 [30]: 0.991 ng/mL (≈ 1.65 nM); TGI [30]: 3.31 ng/mL (≈ 5.52 nM); TGI [31]: 0.63 ng/mL (≈ 1.05 nM); TGI [32]: 0.63 ng/mL (≈ 1.05 nM); GI50 [33]: 1.06 ng/mL (≈ 1.76 nM); TGI [33]: 4.92 ng/mL (≈ 8.19 nM); TGI [34]: 1.64 ng/mL (≈ 2.73 nM); GI50 [35]: 1.85 ng/mL (≈ 3.08 nM); TGI [35]: 4.52 ng/mL (≈ 7.52 nM); GI50 [36]: 1.36 ng/mL (≈ 2.26 nM); TGI [36]: 3.55 ng/mL (≈ 5.9 nM)
